Source: patent US5929063A, “Mercapto and seleno derivatives as inhibitors of nitric oxide synthase” (priority 1995, dated 1999)

Tested on: J774.2 macrophages
Test: Nitrite production in immunostimulated J774.2 macrophages (E.coli LPS + murine gamma-interferon, 24 h)
Type: cell-based, mouse
Settings: for inhibition of nitrite production, in words: IFN and LPS; for activity at 1 µM / activity at 3.16 µM / activity at 10 µM / activity at 31.6 µM / activity at 100 µM: Mus musculus, J774.2, 24 h, read-out: NITRITE (% OF CONTROL)
Experimental: This example illustrates the effect of selected mercapto and seleno derivatives on nitrite production in J774.2 immunostimulated macrophages. The J774.2 mouse macrophage cell line was obtained from the ATCC and was cultured in DMEM with 4×10^-3 M L-glutamine and 10% fetal calf serum. Cells were cultured in 96-well plates with 200 μl culture medium until they reached 60-80% confluence. To induce INOS, fresh culture medium containing E.coli LPS (10 μg/ml) and murine gamma-interferon (IFN)(50 U/ml) was added. Nitrite accumulation in the cell culture medium in the absence or presence of various inhibitors was measured after 24 hours. Nitrite production, an indicator of NO synthesis, was measured in the supernatant of J774.2 macrophages by the Greiss reaction as described in Example 1 above.
This Example illustrates the effect of selected seleno derivatives on endotoxin-induced nitrite formation in J774.2 macrophages. The mouse macrophage cell line J774.2 obtained from the ATCC was cultured in DMEM with 4×10^-3 M L-glutamine and 10% fetal calf serum. Cells were cultured in 96-well plates with 200 μl culture medium until they reached 60-80% confluence. To induce iNOS, fresh culture medium containing E.coli LPS (10 μg/ml) and murine gamma-interferon (IFN)(50 U/ml) were added. Nitrite accumulation in the cell culture medium in the absence or presence of various inhibitors was measured after 24 hours. There was no detectable nitrite production by the J774.2 macrophages in the absence of immunostimulation. However, in the presence of IFN and LPS, nitrite concentration of the medium increased to 17±2 μM in the absence of inhibitor.

SMILES	inhibition of nitrite production, in words	activity at 1 µM	activity at 3.16 µM	activity at 10 µM	activity at 31.6 µM	activity at 100 µM
NC1=NCC[Se]1 [ASZ, 2-aminoselenazoline]	dose-dependently inhibited nitrite production	100%	96%	60%	37%	14%
N=C(N)NCCC[SeH] [SPG, selenopropylguanidine]	dose-dependently inhibited nitrite production	100%	73%	11%	4%	0%
